Row | melting point [°C] | SMILES
1 | 85 to 86 | c1ccc2c(c1)C[C@H]1Nc3ccccc3[C@@H]21 (relative stereo)
2 | 150 to 151 | CC1CCC(C(C)C)C(c2ccc3c(c2)C(c2ccccc2)(C(F)(F)F)c2cc(C4CC(C)CCC4C(C)C)ccc2O3)C1 (centres undefined)
3 | 45 | CCOC(=O)C(Cc1ccc(O)cc1)C(=O)OCC
4 | 197 to 200 | CN(C)C=Nc1[nH]nc(NCc2ccccc2)c1C#N
5 | 237 | O=C(Nc1ccc2ccc(Cl)nc2n1)C1=CSCCS1
6 | 59 to 60 | COc1ccc(N2C(=O)[C@H](O[Si](C(C)C)(C(C)C)C(C)C)[C@@H]2CC(C)C)cc1
7 | 195 to 197 | NC(=O)c1nnn(Cc2cc(Cl)c(S(=O)c3ccc(Cl)cc3)c(Cl)c2)c1N (centres undefined)
8 | 112 | O=[N+]([O-])c1ccc(Cl)cc1Nc1cccc(Cl)c1
9 | 115 to 116 | O=C(C=C1CCCN1)c1ccccc1
10 | 120 to 123 | CC(C)(Cc1c[nH]c2ccccc12)NCC(O)COc1ccccc1C#N (centres undefined)
11 | 194 to 195 | COn1c(-c2ccccc2)nc2cnc3ccccc3c21
12 | 187 | Cc1cc2cc(CN3CCCC3)cnc2cc1NC(=O)c1ccc(-c2ccsc2)cc1
13 | 172 to 174 | O=S(=O)(Nc1ccc2c(OCc3ccc(-c4ccc(Cl)c(Cl)c4)cc3F)cccc2c1)C(F)(F)F
14 | 134 to 135 | CC(CC(=O)O)CC(=O)c1ccc(N2CCC(c3ccccc3)CC2)cc1 (centres undefined)
15 | 272 to 274 | CCCCC1N=CC(CSc2ccccc2C(=O)O)(Cc2ccc(C(=O)O)c3ccccc23)N1 (centres undefined)
16 | 90 | CN(C)CCOc1ccccc1CC(=O)N1C[C@@H]2C(=O)CCC(c3ccccc3)(c3ccccc3)[C@@H]2C1 (racemic)
17 | 252 to 253 | Cn1ncc(/C=C/C(=O)Nc2ccc(Cc3nnn[nH]3)cc2)c1-c1ccc(F)cc1
18 | 91 to 93 | CC(C)(C)OC(=O)N1CCC(C(=O)c2ccccc2)CC1
19 | 167 to 168 | COc1ccc(CONC(=O)Cn2nnnc2S)cc1
20 | 182 to 184 | Fc1ccc2c(c1)OCc1c(-c3noc(C4CC4)n3)ncn1-2
21 | 147 | CC(C)c1ccc2nc[nH]c(=O)c2c1
22 | 202 to 205 | Cc1ccc2c(c1)N(CC(=O)c1ccccc1C)C(=O)C(NC(=O)Nc1cccc(C(=O)O)c1)CN2C(=O)CC(C)C (centres undefined)
23 | 254 to 256 | N#Cc1ccc(OCCNc2ccc(C(=O)O)cc2)c2ccccc12
24 | 157 to 158 | C=C1CC2C(=CCC3(C)C2CC(C)C3(O)C(C)=O)C2(C)CCC(=O)C=C12 (centres undefined)

Row | melting point [°C] | SMILES
25 | 276 to 280 | C1=c2cc3c(cc2Sc2ccccc21)=Cc1ccccc1S3
26 | 241 to 242 | Cc1cc2c(cc1C(F)(F)F)NC(=O)CC(c1cccc(-c3ncoc3C)c1)=N2
27 | 150 to 155 | COc1ccc(C2(C34CC5CC(CC(C5)C3)C4)N=C(N)N(C)C2=O)cc1 (centres undefined)
28 | 195 to 198 | O=C(O)c1cc([N+](=O)[O-])cn1C1CCCC1
29 | 200 to 202 | CCc1cc(N)c(C(=O)c2ccccc2)c(C)n1
30 | 70 to 73 | c1cncc(-c2cc(C3CC3)on2)c1
31 | 185 to 187 | CC1N=CC=C(CS)C1(O)CC(=O)O (centres undefined)
32 | 36 to 39 | CC(C)/[N+]([O-])=C/c1ccccc1O
33 | 264 to 266 | CCOC(=O)c1c[nH]c2cc(C(=O)NC3CCN(Cc4ccccc4)CC3)nn2c1=O
34 | 218 to 221 | O=C1CCCN1Cc1ccc(CCn2cnc3cc(-c4ccc(Cl)cc4)sc3c2=O)cc1
35 | 198 | NS(=O)(=O)c1cccc(-c2cn(-c3nc(-c4ccc(C(F)(F)F)cc4)cc(C(F)(F)F)n3)cn2)c1
36 | 184 | COc1ccc(C2=NN(Cc3ccc(NC(=O)c4cccnc4)cc3)C(=O)CC2)cc1OC
37 | 210 to 212 | CC(C)(C)c1ccc(-c2c(Cl)c(CN3C(=O)CCC3=O)nc3sc4c(c23)CCNC4)cc1
38 | 172 to 174 | CCCCCCCCCCCCCCCCCCOc1cc(OCc2ccc3ccccc3n2)cc(N(CC(=O)O)CC(=O)O)c1
39 | 154 | CN(C)NC(=O)c1nc([N+](=O)[O-])cn1C
40 | 227 to 228 | CC(C)NN=C(N)Nc1c(Cl)cccc1Cl
41 | 191 | Nc1ccc(C2Nc3ccccc3C(=O)N2c2ccccc2)cc1 (centres undefined)
42 | 210 to 212 | Cc1nnc(N2CCC(N3c4ccccc4N(C)S3(=O)=O)CC2)n1-c1ccc(Cl)cc1
43 | 88 | CCN(CC)C(=O)c1cc(-c2ccc(OC)cc2)c2ccsc2c1
44 | 104 to 106 | CC1COc2cc(NC(=O)OCc3ccccc3)ccc2N1C(=O)OCc1ccccc1 (centres undefined)
45 | 149 to 150 | COCC(NC(C)C)c1c[nH]c2cccc(Oc3ccc(Cl)cc3)c12 (centres undefined)
46 | 142 to 143 | NCC(=O)N(O)Cc1ccccc1
47 | 207 to 209 | O=C(c1ccc(-n2ccnc2)cc1)N1CCN(S(=O)(=O)c2ccc3cc(Br)ccc3c2)CC1
48 | 201 to 202 | CC1=C(C(=O)OC(C)(C)C)C(c2ccccc2F)C(C(=O)OC(C)(C)C)=C(C)N1

Row | melting point [°C] | SMILES
49 | 138 to 140 | COc1cccc(CCc2c(CC(=O)NC(C)C)ccc(OC)c2OC)c1
50 | 86 to 88 | CCCCCC(Oc1ccc(C2=CCCCC2)cc1)C(=O)NC(C)C (centres undefined)
51 | 156 to 158 | N/C(=C1/Sc2ccccc2C1=O)c1ccccc1F
52 | 305 to 308 | O=c1c2c(Cc3ccccc3)n[nH]c2c2cccnc2n1-c1ccccc1
53 | 189 to 190 | Cc1ccccc1C(=O)Nc1ccc(C(=O)N2CCCC(COS(C)(=O)=O)c3ccccc32)cc1 (centres undefined)
54 | 209 to 210 | COc1ccc2c(c1)nc(COc1ccc(CC3SC(=O)NC3=O)cc1)n2C (centres undefined)
55 | 204 to 205 | Oc1ccc([C@H]2c3ccc(OCc4ccccc4)cc3OC[C@H]2c2ccccc2)cc1 (racemic)
56 | 47 | Clc1cnc(Sc2ccccc2)nc1
57 | 195 to 197 | CCN1C(=O)CC(C(=O)O)C1c1c(Cl)cccc1Cl (centres undefined)
58 | 153 to 154 | CC(CO)n1nnc2cc3c(=O)n(C(C)Cn4ncnn4)nnc3cc2c1=O (centres undefined)
59 | 197 to 198 | O=C(C=Cc1ccc(O)c([N+](=O)[O-])c1)N(c1ccccc1)c1ccccc1
60 | 148 to 150 | Oc1ccc2ccccc2c1C1NCCc2ccccc21 (centres undefined)
61 | 108 | N#CNC(=NCCO[N+](=O)[O-])c1ccc(N)nc1
62 | 177 to 180 | CSc1sc(-c2nc(C)no2)c2c1C(=O)CC(C)(C)C2
63 | 108 to 109 | CS(=O)c1ccc(C2=CC(=O)C(C)(C)O2)cc1 (centres undefined)
64 | 128 to 130 | COC1N=C(c2ccccc2Cl)c2cc(Cl)ccc2-c2cn(C)cc21 (centres undefined)
65 | 115 to 116 | Cc1cccc(N2CCN(CCc3c(C)nc4ccc(C)cn4c3=O)CC2)c1
66 | 91 to 93 | C=Cc1ccc(C(=O)OC)[nH]1
67 | 213 to 214 | Cc1nc2c(OCc3ccccc3)cc(CO)cc2n1C
68 | 280 | Cc1ccc2[nH]c3c(cc(-c4cccc(C=O)c4)c(=O)n3C)c2c1
69 | 241 to 242 | O=C(O)c1cc(-n2c(-c3ccc([N+](=O)[O-])cc3)cc3c2CCCC3)ccc1O
70 | 85 to 88 | O=C(O)CCC1CCN(CC(=O)OC2CCCCC2)CC1
71 | 234 to 235 | N#CC(N)=C(C#N)N=Cc1cnn(-c2c(Cl)cc(C(F)(F)F)cc2Cl)n1
72 | 145 to 147 | CC(C)(N)CCn1c(=O)oc2ccccc21

Row | melting point [°C] | SMILES
73 | 99 to 104 | CCCCc1ccc(C(=O)NCc2c[nH]c(=S)n2[C@H]2CCc3c(F)cc(F)cc3C2)nc1
74 | 100 to 101 | CN1CC(Oc2ccc(Nc3cc(Br)cn(C)c3=O)nc2)C1
75 | 150 to 154 | CC(C)(C)n1ncc(OCc2ccc(Oc3ccc(Cl)cc3)nc2)c(Cl)c1=O
76 | 193 to 195 | COc1cnc(-c2cccn3nc(Nc4ccc(C5CCN(C(=O)OC(C)(C)C)CC5)cc4)nc23)cn1
77 | 149 | Cn1c(=O)oc2cc(C(=O)CCN3CCN(c4ccc(F)cc4)CC3)ccc21
78 | 317 to 318 | COc1cc(OC)c2c(=O)[nH]c(-c3ccc(CN4C(=O)CNC4=O)cc3)nc2c1
79 | 180 | CCSc1cc(SCC)c2ccc3c(SCC)cc(SCC)c4ccc1c2c43
80 | 41 to 42 | Cn1nnnc1SCCCC(=O)c1ccco1
81 | 168 to 171 | CC(C)(C)NC(=O)c1nn(-c2ccc(F)cc2F)c2c1CC1CC2C1(C)C (centres undefined)
82 | 186 to 188 | Cc1csc2c(CS(=O)c3nc4ccccc4[nH]3)nccc12 (centres undefined)
83 | 118 | COCCOc1ccc(CCCOC(=O)NS(=O)(=O)NCCc2cccs2)c(Oc2ncc(C(F)(F)F)cc2Cl)c1
84 | 113 to 115 | Cc1nc2c(C#N)c(C)nn2c(Cl)c1CCCl
85 | 195 to 196 | CCOc1cccc(-c2cnc3[nH]cc(C(=O)C(C)(C)C)c3n2)c1
86 | 152 to 154 | C#Cc1cn(C2CC(OC(C)=O)C(COC(C)=O)O2)c(=O)[nH]c1=O (centres undefined)
87 | 107 to 108 | CNC(=O)C(=O)CCCCCCSc1nc(-c2ccccc2)cs1
88 | 134 to 136 | CN(CCCNc1ncc(CCc2ccccc2)c(=O)[nH]1)c1ccccn1
89 | 193 to 194 | Nc1nc(-c2ccc(NC(=O)CN(Cc3ccccc3)S(=O)(=O)N3CCOCC3)cc2)cs1
90 | 85 to 87 | OCc1cccn2cc(-c3ccccc3)nc12
91 | 83 to 84 | Clc1ccc(C=NC(c2ccccc2)c2ccccc2)cc1
92 | 131 to 134 | CN(C)c1ccc(N=Nc2ccccc2C(=O)NCCNC(=O)OC(C)(C)C)cc1
93 | 234 to 236 | Cc1n[nH]c2cc(-c3nn(C(C)c4oc5ccc(F)cc5c(=O)c4-c4cccc(F)c4)c4ncnc(N)c34)ccc12 (centres undefined)
94 | 197 to 198 | CCCn1nc2c(N)nc3ccccc3c2c1CCNC(=O)NC(C)C
95 | 115 to 118 | CC1(C)C(=NO)C(=O)C2(C)CC(O)C12 (centres undefined)
96 | 103 to 105 | CC(=O)OCC1OC(n2c(Br)c(C#N)c3cc(Cl)c(Cl)cc32)C(O)C1O (centres undefined)

Row | SMILES | melting point [°C]
97 | C=CCOC1CCC2C3CCC4CC(=O)CCC4(C)C3CCC12C (centres undefined) | 122 to 124
98 | CCSCC12CCC(=O)C=C1CCC1C3CC(CC)C(=O)C3(C)CCC12 (centres undefined) | 73
99 | CNC(=O)Oc1cccc(C2CCCN2CCN2C(=O)c3ccccc3C2=O)c1 (centres undefined) | 96 to 98

— a melting point compilation (Tetko et al.; mined from patent text by program, amines drawn as free bases though some values may be those of a salt)
